Drawing on patent US9533985B2, “Sulfonamide derivative and medicinal use thereof” (EA Pharma Co., Ltd., priority 2012, dated 2017), this text covers IC50 for 20 compounds.

Sequence of α4β7 integrin (P13612 34-1032): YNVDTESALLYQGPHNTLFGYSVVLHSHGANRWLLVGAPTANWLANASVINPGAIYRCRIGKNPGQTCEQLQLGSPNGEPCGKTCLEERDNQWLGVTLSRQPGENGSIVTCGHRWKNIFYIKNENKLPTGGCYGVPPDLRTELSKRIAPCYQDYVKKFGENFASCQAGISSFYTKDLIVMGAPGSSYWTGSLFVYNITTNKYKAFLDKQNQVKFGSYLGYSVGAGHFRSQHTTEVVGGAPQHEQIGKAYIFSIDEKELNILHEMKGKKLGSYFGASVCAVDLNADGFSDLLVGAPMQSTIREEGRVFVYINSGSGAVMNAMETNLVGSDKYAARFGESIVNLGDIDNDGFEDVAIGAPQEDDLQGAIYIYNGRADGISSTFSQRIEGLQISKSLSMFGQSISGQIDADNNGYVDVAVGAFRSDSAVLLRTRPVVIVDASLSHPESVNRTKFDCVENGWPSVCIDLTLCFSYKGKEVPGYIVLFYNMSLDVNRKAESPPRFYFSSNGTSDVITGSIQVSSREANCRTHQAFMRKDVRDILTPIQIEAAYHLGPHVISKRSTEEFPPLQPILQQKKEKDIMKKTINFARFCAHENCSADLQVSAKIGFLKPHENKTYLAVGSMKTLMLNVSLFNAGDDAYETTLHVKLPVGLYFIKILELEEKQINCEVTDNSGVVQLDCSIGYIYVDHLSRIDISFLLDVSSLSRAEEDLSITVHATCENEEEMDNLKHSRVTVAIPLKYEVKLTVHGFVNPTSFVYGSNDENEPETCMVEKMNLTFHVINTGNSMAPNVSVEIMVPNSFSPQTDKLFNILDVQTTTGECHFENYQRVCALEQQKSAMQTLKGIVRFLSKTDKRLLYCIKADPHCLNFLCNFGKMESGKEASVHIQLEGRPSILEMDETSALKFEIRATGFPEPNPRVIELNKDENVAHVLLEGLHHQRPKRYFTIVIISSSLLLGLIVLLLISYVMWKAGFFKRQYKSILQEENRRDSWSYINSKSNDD
Sequence of α4β7 integrin (P26010 20-798): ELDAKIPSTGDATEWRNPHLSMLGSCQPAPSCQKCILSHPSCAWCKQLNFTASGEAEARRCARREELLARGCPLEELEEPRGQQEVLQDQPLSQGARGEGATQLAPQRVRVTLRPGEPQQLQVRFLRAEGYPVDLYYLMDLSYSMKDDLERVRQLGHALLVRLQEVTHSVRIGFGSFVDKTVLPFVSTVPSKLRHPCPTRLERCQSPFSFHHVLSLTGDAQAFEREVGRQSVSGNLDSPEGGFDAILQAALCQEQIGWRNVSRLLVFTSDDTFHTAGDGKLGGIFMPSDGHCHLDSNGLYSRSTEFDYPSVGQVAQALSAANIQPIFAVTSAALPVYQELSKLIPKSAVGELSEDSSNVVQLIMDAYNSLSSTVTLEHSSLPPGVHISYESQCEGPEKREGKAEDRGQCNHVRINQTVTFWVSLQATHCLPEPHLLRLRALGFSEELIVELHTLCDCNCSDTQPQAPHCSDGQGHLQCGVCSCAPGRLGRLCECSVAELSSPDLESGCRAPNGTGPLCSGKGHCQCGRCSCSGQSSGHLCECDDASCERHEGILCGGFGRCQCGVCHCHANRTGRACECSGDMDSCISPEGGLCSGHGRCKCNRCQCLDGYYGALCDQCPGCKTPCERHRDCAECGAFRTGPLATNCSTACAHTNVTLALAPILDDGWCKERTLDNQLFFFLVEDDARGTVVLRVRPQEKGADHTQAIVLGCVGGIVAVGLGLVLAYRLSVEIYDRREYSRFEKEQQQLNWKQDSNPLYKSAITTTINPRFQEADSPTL

For the experiment, the target named is α4β7 integrin (Homo sapiens (Human), UniProt P13612+P26010). Briefly: MAdCAM-1/α4β7 integrin binding inhibitory activity evaluation test in the presence of serum (2). It counts as cell-based. The following applies: RPMI-8866 cells binding to mouse MAdCAM-1/Fc, same manner as Test (3), read-out: α4β7 Rank of activity with serum added. As to the method:
The ability of test substances to inhibit the binding of a human B cell line, RPMI-8866, which is known to express α4β7 integrin, to MAdCAM-1 was measured.
To 96-well microtiter plates, recombinant mouse MAdCAM-1/Fc (R&D systems) solution (1 μg/mL) diluted with buffer A (carbonate buffer, pH 9.6) was added at 50 μL/well, followed by incubation at 4° C. overnight. After washing once with PBS, Block Ace (Snow Brand Milk Products Company, Limited) was added at 150 μL/well, followed by incubation at room temperature for 2 hours. After removal, washing was conducted once with PBS.
100 μL of each test substance diluted with a binding buffer (DMEM containing 40 mM HEPES, 0.2% BSA, and 4 mM MnCl2) to various concentrations and 100 μL of RPMI-8866 cells (2×10^6 cell/mL) were added to plates coated with MAdCAM-1/Fc (5×10^5 cells/well) with human serum being contained at a final concentration of 50%, followed by incubation at 30° C. for 15 minutes to 60 minutes. After the cells were bound to each well, unbound cells were removed by washing with PBS. To the plates, buffer C (PBS containing 1.5% Triton X-100) was added at 50 μL/well to lyse the bound RPMI-8866 cells. To 30 μL of the cell lysate, 30 μL of Substrate Buffer (Promega, CytoTox 96 Non-Radioactive Cytotoxicity Assay) was added, and the reaction was allowed to proceed at room temperature in a dark place for 30 minutes. To each well, 30 μL of Stop Solution (Promega, CytoTox 96 Non-Radioactive Cytotoxicity Assay) was added, and the absorbance at 490 nm was measured by using a plate reader. Here, by the obtained absorbance, the activity of the lactate dehydrogenase (LDH) dissolved into the supernatant of each well was detected. In other words, the absorbance was proportional to the number of the RPMI-8866 cells bound to MAdCAM-1 and remaining on the plate. The test was duplicated. The binding ratios of the cells at various concentrations were determined, with the absorbance of a well containing no test substance taken as 100%. Then, the concentration IC50, at which 50% binding inhibition was achieved, was calculated.
The MAdCAM-1/α4β7 integrin binding inhibitory activity in the presence of serum was measured in the same manner as in Test (3) described above. […] The VCAM-1/α4β1 integrin binding inhibitory activity evaluation test and the MAdCAM-1/α4β7 integrin binding inhibitory activity evaluation test were carried out according to the methods described in Tests (1) and (2) described above.
`Cn1c(=O)n(-c2ccc(C[C@H](NC(=O)c3cc(F)c(NS(=O)(=O)c4ccccc4)cc3F)C(=O)O)nc2)c(=O)c2ccncc21` [Example 137, N-{2,5-Difluoro-4-[(phenylsulfonyl)amino]benzoyl}-3-[5-(1-methyl-2,4-dioxo-1,4-dihydropyrido[3,4-d]pyrimidin-3(2H)-yl)pyridin-2-yl]-L-alanine]: the IC50 lay in the range of 0.05 to 0.2 µM.
For `Cn1c(=O)n(-c2ccc(C[C@H](NC(=O)c3cc(F)c(NS(=O)(=O)c4ccccn4)cc3F)C(=O)O)nc2)c(=O)c2ccncc21` [Example 138, N-{2,5-Difluoro-4-[(pyridin-2-yl-sulfonyl)amino]benzoyl}-3-[5-(1-methyl-2,4-dioxo-1,4-dihydropyrido[3,4-d]pyrimidin-3(2H)-yl)pyridin-2-yl]-L-alanine] the value was 0.05 to 0.2 µM; for `Cn1c(=O)n(-c2ccc(C[C@H](NC(=O)c3ccc(NS(=O)(=O)c4ccco4)cc3F)C(=O)O)nc2)c(=O)c2ccncc21` [Example 139, N-{2-Fluoro-4-[(2-furylsulfonyl)amino]benzoyl}-3-[5-(1-methyl-2,4-dioxo-1,4-dihydropyrido[3,4-d]pyrimidin-3(2H)-yl)pyridin-2-yl]-L-alanine], 0.01 to 0.05 µM.
Then `Cn1c(=O)n(-c2ccc(C[C@H](NC(=O)c3cc(F)c(NS(=O)(=O)c4ccco4)cc3F)C(=O)O)nc2)c(=O)c2ccncc21` [Example 140, N-{2,5-Difluoro-4-[(2-furylsulfonyl)amino]benzoyl}-3-[5-(1-methyl-2,4-dioxo-1,4-dihydropyrido[3,4-d]pyrimidin-3(2H)-yl)pyridin-2-yl]-L-alanine], with 0.01 to 0.05 µM.
Then `CC(=O)c1ccc(S(=O)(=O)Nc2cc(F)c(C(=O)N[C@@H](Cc3ccc(-n4c(=O)c5ccncc5n(C)c4=O)cn3)C(=O)O)cc2F)cc1` [Example 141, N-(4-{[(4-Acetylphenyl)sulfonyl]amine}-2,5-difluorobenzoyl)-3-[5-(1-methyl-2,4-dioxo-1,4-dihydropyrido[3,4-d]pyrimidin-3(2H)-yl)pyridin-2-yl]-L-alanine], with 0.01 to 0.05 µM; and `Cn1c(=O)n(-c2ccc(C[C@H](NC(=O)c3ccc(NS(=O)(=O)c4ccccn4)cc3F)C(=O)O)nc2)c(=O)c2ccncc21` [Example 142, N-{2-Fluoro-4-[(pyridin-2-yl-sulfonyl)amino]benzoyl}-3-[5-(1-methyl-2,4-dioxo-1,4-dihydropyrido[3,4-d]pyrimidin-3(2H)-yl)pyridin-2-yl]-L-alanine], with 0.01 to 0.05 µM; and `COc1ccccc1S(=O)(=O)Nc1cc(F)c(C(=O)N[C@@H](Cc2ccc(-n3c(=O)c4ccncc4n(C)c3=O)cc2)C(=O)O)c(F)c1` [Example 143, N-(2,6-Difluoro-4-{[(2-methoxyphenyl)sulfonyl]amino}benzoyl)-4-(1-methyl-2,4-dioxo-1,4-dihydropyrido[3,4-d]pyrimidin-3(2H)-yl)-L-phenylalanine], with at most 0.01 µM.
On to `Cn1c(=O)n(-c2ccc(C[C@H](NC(=O)c3ccc(NS(=O)(=O)c4ccc5c(c4)C(=O)CC5)cc3F)C(=O)O)nc2)c(=O)c2ccncc21` [Example 144, N-(2-Fluoro-4-{[(3-oxo-2,3-dihydro-1H-inden-5-yl)sulfonyl]amino}benzoyl)-3-[5-(1-methyl-2,4-dioxo-1,4-dihydropyrido[3,4-d]pyrimidin-3(2H)-yl)pyridin-2-yl]-L-alanine], for which the IC50 fell in the range of 0.05 to 0.2 µM.
For `COc1ccccc1S(=O)(=O)Nc1cc(F)c(C(=O)N[C@@H](Cc2ccc(-n3c(=O)c4ccncc4n(C)c3=O)cn2)C(=O)O)c(F)c1` [Example 145, N-(2,6-Difluoro-4-{[(2-methoxyphenyl)sulfonyl]amino}benzoyl)-3-[5-(1-methyl-2,4-dioxo-1,4-dihydropyrido[3,4-d]pyrimidin-3(2H)-yl)pyridin-2-yl]-L-alanine] the value was at most 0.01 µM.
Then `CCOc1ccccc1S(=O)(=O)Nc1cc(F)c(C(=O)N[C@@H](Cc2ccc(-n3c(=O)c4ccncc4n(C)c3=O)cn2)C(=O)O)c(F)c1` [Example 146, N-(4-{[(2-Ethoxyphenyl)sulfonyl]amino}-2,6-difluorobenzoyl)-3-[5-(1-methyl-2,4-dioxo-1,4-dihydropyrido[3,4-d]pyrimidin-3(2H)-yl)pyridin-2-yl]-L-alanine], with 0.01 to 0.05 µM; and `COc1cc2c(=O)n(-c3ccc(C[C@H](NC(=O)c4ccc(NS(=O)(=O)c5ccco5)cc4F)C(=O)O)cc3)c(=O)n(C)c2cn1` [Example 147, N-{2-Fluoro-4-[(2-furylsulfonyl)amino]benzoyl}-4-(6-methoxy-1-methyl-2,4-dioxo-1,4-dihydropyrido[3,4-d]pyrimidin-3(2H)-yl)-L-phenylalanine], with 0.01 to 0.05 µM; and `Cn1c(=O)n(-c2ccc(C[C@H](NC(=O)c3c(F)cc(NS(=O)(=O)c4ccc(-c5ccco5)cc4)cc3F)C(=O)O)nc2)c(=O)c2ccncc21` [Example 148, N-[2,6-Difluoro-4-({[4-(2-furyl)phenyl]sulfonyl}amino)benzoyl]-3-[5-(1-methyl-2,4-dioxo-1,4-dihydropyrido[3,4-d]pyrimidin-3(2H)-yl)pyridin-2-yl]-L-alanine], with 0.01 to 0.05 µM.
Then `Cn1c(=O)n(-c2ccc(C[C@H](NC(=O)c3cc(F)c(NS(=O)(=O)c4ccco4)cc3F)C(=O)O)cc2)c(=O)c2ccncc21` [Example 149, N-{2,5-Difluoro-4-[(2-furylsulfonyl)amino]benzoyl}-4-(1-methyl-2,4-dioxo-1,4-dihydropyrido[3,4-d]pyrimidin-3(2H)-yl)-L-phenylalanine], with 0.01 to 0.05 µM; and `Cn1c(=O)n(-c2ccc(C[C@H](NC(=O)c3cc(F)c(NS(=O)(=O)c4ccco4)cc3F)C(=O)O)cn2)c(=O)c2ccncc21` [Example 150, N-{2,5-Difluoro-4-[(2-furylsulfonyl)amino]benzoyl}-3-[6-(1-methyl-2,4-dioxo-1,4-dihydropyrido[3,4-d]pyrimidin-3(2H)-yl)pyridin-3-yl]-L-alanine], with 0.01 to 0.05 µM; and `Cc1ccc(-c2ccc(S(=O)(=O)Nc3cc(F)c(C(=O)N[C@@H](Cc4ccc(-n5c(=O)c6ccncc6n(C)c5=O)cc4)C(=O)O)c(F)c3)nc2)cn1` [Example 151, N-(2,6-Difluoro-4-{[(6′-methyl-3,3′-bipyridin-6-yl)sulfonyl]amino}benzoyl)-4-(1-methyl-2,4-dioxo-1,4-dihydropyrido[3,4-d]pyrimidin-3(2H)-yl)-L-phenylalanine], with 0.01 to 0.05 µM.
As for `CCNC(=O)c1ccc(S(=O)(=O)Nc2cc(F)c(C(=O)N[C@@H](Cc3ccc(-n4c(=O)c5c(ncn5C)n(C)c4=O)cc3)C(=O)O)c(F)c2)cc1` [Example 152, 4-(3,7-Dimethyl-2,6-dioxo-2,3,6,7-tetrahydro-1H-purin-1-yl)-N-{4-[({4-[(ethylamino)carbonyl]phenyl}sulfonyl)amino]-2,6-difluorobenzoyl}-L-phenylalanine], the IC50 is at most 0.01 µM.
For `Cn1cnc2c1c(=O)n(-c1ccc(C[C@H](NC(=O)c3c(F)cc(NS(=O)(=O)c4ccc(-c5ncccn5)cn4)cc3F)C(=O)O)cc1)c(=O)n2C` [Example 153, N-(2,6-Difluoro-4-{[(5-pyrimidin-2-yl-pyridin-2-yl)sulfonyl]amino}benzoyl)-4-(3,7-dimethyl-2,6-dioxo-2,3,6,7-tetrahydro-1H-purin-1-yl)-L-phenylalanine] the value was at most 0.01 µM; for `Cn1c(=O)n(-c2ccc(C[C@H](NC(=O)c3ncc(NS(=O)(=O)c4ccc(-c5ncccn5)cn4)cc3F)C(=O)O)cc2)c(=O)c2ccncc21` [Example 154, N-[(3-Fluoro-5-{[(5-pyrimidin-2-yl-pyridin-2-yl)sulfonyl]amino}pyridin-2-yl)carbonyl]-4-(1-methyl-2,4-dioxo-1,4-dihydropyrido[3,4-d]pyrimidin-3(2H)-yl)-L-phenylalanine], 0.01 to 0.05 µM.
For `CCNC(=O)c1ccc(S(=O)(=O)Nc2cc(F)c(C(=O)N[C@@H](Cc3ccc(-n4c(=O)cc(C)n(C)c4=O)cc3)C(=O)O)c(F)c2)cc1` [Example 155, 4-(3,4-Dimethyl-2,6-dioxo-3,6-dihydropyrimidin-1(2H)-yl)-N-{4-[({4-[(ethylamino)carbonyl]phenyl}sulfonyl)amino]-2,6-difluorobenzoyl}-L-phenylalanine] the value was 0.01 to 0.05 µM; for `CCNC(=O)c1ccc(S(=O)(=O)Nc2cc(F)c(C(=O)N[C@@H](Cc3ccc(-n4c(=O)cc(C(C)C)n(C)c4=O)cc3)C(=O)O)c(F)c2)cc1` [Example 156, N-{4-[({4-[(Ethylamino)carbonyl]phenyl}sulfonyl)amino]-2,6-difluorobenzoyl}-4-(4-isopropyl-3-methyl-2,6-dioxo-3,6-dihydropyrimidin-1(2H)-yl)-L-phenylalanine], 0.01 to 0.05 µM.
